Data published in US8895544B2, “Indazoles” (Pfizer Limited, priority 2011, dated 2014).
Where a name gives a salt, the structure may show the parent alone.

Assays:
JAK3 enzyme = JAK3 enzyme (Homo sapiens (Human), UniProt P52333); assay: JAK3 isolated enzyme high ATP Caliper endpoint assay; type: biochemical; details: 400 μM ATP, read-out: JAK-3 IC50
Protocol: JAK3 Isolated Enzyme High ATP Caliper Endpoint Assay
4 mM stock solutions of test compounds are prepared and serially diluted in 100% DMSO. […] Greiner 384 well plates are prepared containing 400 nl of serially diluted compound, standard and HPE/ZPE. Final top assay concentration is 80 μM as the assay dilution factor is fifty.
JAK3 enzyme stock is diluted to 2 nM in assay buffer (10 mM HEPES free acid pH 7.5, 10 mM HEPES free base pH 7.5, 10 mM MgCL2, 0.0005% Tween-20, 0.01% BSA) containing 2 mM DTT (all supplied by Sigma). ATP is made up at 10 mM stock in sterile water and diluted to 800 μM in assay buffer. Peptide (American peptide company) is made up at 30 mM in 100% DMSO and diluted to 3 μM in assay buffer.
Assays are performed in Greiner polypropylene 384 well plates. Following compound preparation within the plate 10 μl of enzyme in assay buffer containing DTT is added using a Multidrop Micro. Final assay concentration of enzyme is 1 nM. Compound and enzyme are pre-incubated for 60 minutes at room temperature using low evaporation lids before addition of 10 μl ATP/peptide mixture in assay buffer using a Multidrop Micro. […] Plates are foil sealed and incubated for a further 60 minutes at room temperature. Stop solution is added to the plates (20 μl/well) using a Multidrop Micro and plates are loaded onto the Caliper EZReader II. Data is generated by the shift in mobility of non-phosphorylated peptide substrates and phosphorylated products by electrophoresis within a chip and detected via LED induced fluorescence. Data is analysed using LabChip EZReader software which calculates the relative heights of the substrate and product peaks and reports product/product plus substrate peak ratio. Test compound data are subsequently expressed as percentage inhibition defined by HPE and ZPE values for each plate. Percentage inhibition in the presence of test compound is plotted against compound concentration on a log scale to determine an IC50 from the resultant sigmoid curve.

JAK1 enzyme = JAK1 enzyme (Homo sapiens (Human), UniProt P23458); assay: JAK1 isolated enzyme high ATP Caliper endpoint assay; type: biochemical; details: 2.5 mM ATP, read-out: JAK-1 IC50;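 note: enzyme at 10 nM preincubated with inhibitor 30 min, then kinase reaction 120 min at room temperature, peptide phosphorylation read by microfluidic mobility shift with fluorescence, inhibition relative to HPE and ZPE plate controls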
JAK1 enzyme, sequence (P23458 whole entry): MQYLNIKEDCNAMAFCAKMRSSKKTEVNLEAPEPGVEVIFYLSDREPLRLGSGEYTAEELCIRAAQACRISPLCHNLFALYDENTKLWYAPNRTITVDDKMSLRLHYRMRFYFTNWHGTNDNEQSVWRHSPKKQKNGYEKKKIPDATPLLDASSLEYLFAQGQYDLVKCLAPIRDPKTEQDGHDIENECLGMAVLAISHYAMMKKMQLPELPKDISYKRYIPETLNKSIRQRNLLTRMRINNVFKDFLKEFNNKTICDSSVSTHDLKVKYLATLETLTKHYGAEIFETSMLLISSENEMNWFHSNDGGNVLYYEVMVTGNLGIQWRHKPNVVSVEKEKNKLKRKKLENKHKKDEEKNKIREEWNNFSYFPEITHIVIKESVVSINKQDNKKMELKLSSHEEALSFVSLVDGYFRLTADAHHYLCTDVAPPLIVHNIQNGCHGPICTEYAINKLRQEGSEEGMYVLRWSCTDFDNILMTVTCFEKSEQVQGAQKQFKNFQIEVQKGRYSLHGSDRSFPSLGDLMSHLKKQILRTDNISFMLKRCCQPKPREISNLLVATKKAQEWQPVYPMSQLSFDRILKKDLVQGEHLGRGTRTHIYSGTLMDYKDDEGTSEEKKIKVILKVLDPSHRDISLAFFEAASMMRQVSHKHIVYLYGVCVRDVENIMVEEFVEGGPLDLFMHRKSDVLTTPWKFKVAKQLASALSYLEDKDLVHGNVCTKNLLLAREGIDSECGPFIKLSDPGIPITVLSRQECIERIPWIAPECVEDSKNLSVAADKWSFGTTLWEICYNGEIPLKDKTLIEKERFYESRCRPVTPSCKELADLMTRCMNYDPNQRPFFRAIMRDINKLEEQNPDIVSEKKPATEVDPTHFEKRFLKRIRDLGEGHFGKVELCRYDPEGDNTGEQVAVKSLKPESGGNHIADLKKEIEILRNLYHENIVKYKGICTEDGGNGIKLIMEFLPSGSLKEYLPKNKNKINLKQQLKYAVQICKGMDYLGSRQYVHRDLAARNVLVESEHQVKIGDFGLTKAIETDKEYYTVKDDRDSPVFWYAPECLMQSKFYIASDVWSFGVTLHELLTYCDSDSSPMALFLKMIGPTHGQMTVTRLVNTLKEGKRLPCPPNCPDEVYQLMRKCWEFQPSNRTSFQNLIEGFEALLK
Protocol: JAK1 Isolated Enzyme High ATP Caliper Endpoint Assay
4 mM stock solutions of test compounds are prepared and serially diluted in 100% DMSO. A standard curve using PF-00956980 (commercially available from Sigma Aldrich) at a top concentration of 4 mM is also prepared. High percentage effect (HPE) is defined by 500 μM PF-00956980 and 0% effect (ZPE) is defined by 100% DMSO. Greiner 384 well plates are prepared containing 400 nl of serially diluted compound, standard and HPE/ZPE. Final top assay concentration is 80 μM as the assay dilution factor is fifty.
JAK1 enzyme (Invitrogen) stock solution is made up at 5.2 μM in sterile water. JAK1 enzyme stock is diluted to 20 nM in assay buffer (10 mM HEPES free acid pH 7.5, 10 mM HEPES free base pH 7.5, 10 mM MgCL2, 0.0005% Tween-20, 0.01% BSA) containing 2 mM DTT (all supplied by Sigma) with the addition of one protease tablet per 25 mls buffer (Roche). ATP is made up at 10 mM stock in sterile water and diluted to 5 mM in assay buffer. Peptide H236 (Caliper Life Sciences) is made up at 1.5 mM in 100% DMSO and diluted to 3 μM in assay buffer. Stop buffer comprises 140 mM HEPES, 22.5 mM EDTA (Sigma) and 0.15% coating reagent (Caliper Life Sciences).
Assays are performed in Greiner polypropylene 384 well plates. Following compound preparation within the plate 10 μl of enzyme in assay buffer containing DTT is added using a Multidrop Micro. Final assay concentration of enzyme is 10 nM. Compound and enzyme are pre-incubated for 30 minutes at room temperature using low evaporation lids before addition of 10 μl ATP/peptide mixture in assay buffer using a Multidrop Micro. Final assay concentrations are 2.5 mM ATP and 1.5 μM peptide. Plates are foil sealed and incubated for a further 120 minutes at room temperature. Stop solution is added to the plates (20 μl/well) using a Multidrop Micro and plates are loaded onto the Caliper EZReader II. Data is generated by the shift in mobility of non-phosphorylated peptide substrates and phosphorylated products by electrophoresis within a chip and detected via LED induced fluorescence. Data is analysed using LabChip EZReader software which calculates the relative heights of the substrate and product peaks and reports product/product plus substrate peak ratio. Test compound data are subsequently expressed as percentage inhibition defined by HPE and ZPE values for each plate. Percentage inhibition in the presence of test compound is plotted against compound concentration on a log scale to determine an IC50 from the resultant sigmoid curve.

JAK3 enzyme, sequence (P52333 whole entry): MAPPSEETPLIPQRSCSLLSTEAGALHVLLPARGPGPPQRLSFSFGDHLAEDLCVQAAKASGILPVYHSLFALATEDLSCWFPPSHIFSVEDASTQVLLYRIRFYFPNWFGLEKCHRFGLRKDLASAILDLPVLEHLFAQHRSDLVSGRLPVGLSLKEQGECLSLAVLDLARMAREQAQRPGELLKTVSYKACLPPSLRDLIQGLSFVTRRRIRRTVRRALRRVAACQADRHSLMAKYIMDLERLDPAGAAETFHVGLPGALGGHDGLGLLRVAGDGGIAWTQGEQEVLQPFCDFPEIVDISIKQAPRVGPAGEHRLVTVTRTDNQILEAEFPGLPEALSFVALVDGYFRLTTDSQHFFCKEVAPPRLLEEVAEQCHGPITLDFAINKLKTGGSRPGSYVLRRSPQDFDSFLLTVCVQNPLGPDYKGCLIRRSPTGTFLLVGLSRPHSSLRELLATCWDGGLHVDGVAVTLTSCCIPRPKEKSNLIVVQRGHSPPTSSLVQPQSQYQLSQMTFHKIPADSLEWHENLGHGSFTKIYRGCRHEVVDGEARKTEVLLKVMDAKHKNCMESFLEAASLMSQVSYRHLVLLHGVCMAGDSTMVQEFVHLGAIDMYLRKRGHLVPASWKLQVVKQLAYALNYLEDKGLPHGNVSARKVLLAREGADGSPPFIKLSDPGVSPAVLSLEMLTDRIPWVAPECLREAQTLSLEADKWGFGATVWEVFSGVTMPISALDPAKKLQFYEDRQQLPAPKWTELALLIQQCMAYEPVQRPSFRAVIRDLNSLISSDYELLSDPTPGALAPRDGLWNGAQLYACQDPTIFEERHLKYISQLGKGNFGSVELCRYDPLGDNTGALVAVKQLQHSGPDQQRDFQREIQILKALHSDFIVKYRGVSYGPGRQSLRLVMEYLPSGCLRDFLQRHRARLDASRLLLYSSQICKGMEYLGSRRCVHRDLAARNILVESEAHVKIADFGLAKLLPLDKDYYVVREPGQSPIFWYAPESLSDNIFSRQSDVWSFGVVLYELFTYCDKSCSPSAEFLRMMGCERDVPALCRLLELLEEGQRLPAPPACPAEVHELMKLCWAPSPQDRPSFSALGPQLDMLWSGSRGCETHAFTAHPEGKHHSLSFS

| SMILES | IC50 (JAK3 enzyme) [nM] | IC50 (JAK1 enzyme) [nM] |
| --- | --- | --- |
| CCc1cc(O)c(F)cc1-c1ccc2c(-c3nc4c([nH]3)CCN(S(=O)(=O)c3ccc(F)cc3)C4)n[nH]c2c1 [Example 12, 5-Ethyl-2-fluoro-4-{3-[5-(4-fluoro-benzenesulfonyl)-4,5,6,7-tetrahydro-1H-imidazo[4,5-c]pyridin-2-yl]-1H-indazol-6-yl}-phenol] | 1.6 | 1.2 |
| CCc1cc(O)c(F)cc1-c1ccc2c(-c3nc4c([nH]3)CCN(C(=O)c3cnc(Oc5ccccc5F)cn3)C4)n[nH]c2c1 [Example 13, {2-[6-(2-Ethyl-5-fluoro-4-hydroxy-phenyl)-1H-indazol-3-yl]-1,4,6,7-tetrahydro-imidazo[4,5-c]pyridin-5-yl}-[5-(2-fluoro-phenoxy)-Dvrazin-2-yl]-methanone] | 3.6 | 1.5 |
| CCc1cc(O)c(F)cc1-c1ccc2c(-c3nc4c([nH]3)CCN(Cc3ccccc3)CC4)n[nH]c2c1 [Example 14, 4-[3-(6-Benzyl-1,4,5,6,7,8-hexahydro-imidazo[4,5-d]azepin-2-yl)-1H-indazol-6-yl]-5-ethyl-2-fluoro-phenol] | 1.4 | 0.8 |
| CCc1cc(O)c(F)cc1-c1ccc2c(-c3nc4c([nH]3)CCN(C(=O)c3ccc(C#N)nc3)C4)n[nH]c2c1 [Example 16, 5-{2-[6-(2-Ethyl-5-fluoro-4-hydroxy-phenyl)-1H-indazol-3-yl]-1,4,6,7-tetrahydro-imidazo[4,5-c]pyridine-5-carbonyl}-pyridine-2-carbonitrile] | 1.9 | 0.7 |
| CCc1cc(O)c(F)cc1-c1ccc2c(-c3nc4c([nH]3)CCN(Cc3ccc(O)cc3)C4)n[nH]c2c1 [Example 19, 5-Ethyl-2-fluoro-4-{3-[5-(4-hydroxy-benzyl)-4,5,6,7-tetrahydro-1H-imidazo[4,5-c]pyridin-2-yl]-1H-indazol-6-yl}-phenol] | 2.2 | 4.3 |
| CCc1cc(O)c(F)cc1-c1ccc2c(-c3nc4c([nH]3)CCN(Cc3cccc(O)c3)C4)n[nH]c2c1 [Example 20, 5-Ethyl-2-fluoro-4-{3-[5-(3-hydroxy-benzyl)-4,5,6,7-tetrahydro-1H-imidazo[4,5-c]pyridin-2-yl]-1H-indazol-6-yl}-phenol] | 5.6 | 2.6 |
| CCc1cc(O)c(F)cc1-c1ccc2c(-c3nc4c([nH]3)CCN(Cc3ccnc(C#N)c3)C4)n[nH]c2c1 [Example 21, 4-{2-[6-(2-Ethyl-5-fluoro-4-hydroxy-phenyl)-1H-indazol-3-yl]-1,4,6,7-tetrahydro-imidazo[4,5-c]pyridin-5-ylmethyl}-pyridine-2-carbonitrile] | 1.4 | 5.9 |
| CCc1cc(O)c(F)cc1-c1ccc2c(-c3nc4c([nH]3)CCN(Cc3cccc(OC)c3)C4)n[nH]c2c1 [Example 22, 5-Ethyl-2-fluoro-4-{3-[5-(3-methoxy-benzyl)-4,5,6,7-tetrahydro-1H-imidazo[4,5-c]pyridin-2-yl]-1H-indazol-6-yl}-phenol formic acid salt] | 2.6 | 3 |
| CCc1cc(O)c(F)cc1-c1ccc2c(-c3nc4c([nH]3)CCN(Cc3cnc5ccccc5c3)C4)n[nH]c2c1 [Example 23, 5-Ethyl-2-fluoro-4-[3-(5-quinolin-3-ylmethyl-4,5,6,7-tetrahydro-1H-imidazo[4,5-c]pyridin-2-yl)-1H-indazol-6-yl]-phenol] | 1.2 | 1.7 |
| CCc1cc(O)c(F)cc1-c1ccc2c(-c3nc4c([nH]3)CCN(Cc3ccc(Oc5ccccc5)nc3)C4)n[nH]c2c1 [Example 24, 5-Ethyl-2-fluoro-4-{3-[5-(6-phenoxy-pyridin-3-ylmethyl)-4,5,6,7-tetrahydro-1H-imidazo[4,5-c]pyridin-2-yl]-1H-indazol-6-yl}-phenol] | 2.4 | 6.2 |
| CCc1cc(O)c(F)cc1-c1ccc2c(-c3nc4c([nH]3)CCN(Cc3cccnc3C#N)C4)n[nH]c2c1 [Example 26, 3-{2-[6-(2-Ethyl-5-fluoro-4-hydroxy-phenyl)-1H-indazol-3-yl]-1,4,6,7-tetrahydro-imidazo[4,5-c]pyridin-5-ylmethyl}-pyridine-2-carbonitrile] | 4.1 | 4 |
| CCc1cc(O)c(F)cc1-c1ccc2c(-c3nc4c([nH]3)CCN(Cc3ccc5cccnc5n3)C4)n[nH]c2c1 [Example 28, 5-Ethyl-2-fluoro-4-[3-(5-[1,8]naphthyridin-2-ylmethyl-4,5,6,7-tetrahydro-1H-imidazo[4,5-c]pyridin-2-yl)-1H-indazol-6-yl]-phenol] | 10.9 | 13.7 |
| O=C(c1cnc(N2CCCCC2)cn1)N1CCc2[nH]c(-c3n[nH]c4cc(-c5cc(F)c(O)cc5CC(F)(F)F)ccc34)nc2C1 [Example 29, (2-{6-[5-Fluoro-4-hydroxy-2-(2,2,2-trifluoro-ethyl)-pheny]-1H-indazol-3-yl}-1,4,6,7-tetrahydro-imidazo[4,5-c]pyridin-5-yl)-(5-piperidin-1-yl-pyrazin-2-yl)-methanone diethylamine salt] | 42 | 1.1 |
| O=C(c1ccc(F)cc1)N1CCc2[nH]c(-c3n[nH]c4cc(-c5cc(F)c(O)cc5CC(F)(F)F)ccc34)nc2C1 [Example 30, (2-{6-[5-Fluoro-4-hydroxy-2-(2,2,2-trifluoro-ethyl)-phenyl]-1H-indazol-3-yl}-1,4,6,7-tetrahydro-imidazo[4,5-c]pyridin-5-yl)-(4-fluoro-phenyl)-methanone diethylamine salt] | 6.7 | 7.7 |
| Oc1cc(CC(F)(F)F)c(-c2ccc3c(-c4nc5c([nH]4)CCN(Cc4ccccc4)C5)n[nH]c3c2)cc1F [Example 31, 4-[3-(5-Benzyl-4,5,6,7-tetrahydro-1H-imidazo[4,5-c]pyridin-2-yl)-1H-indazol-6-yl]-2-fluoro-5-(2,2,2-trifluoro-ethyl)-phenol diethylamine salt] | 186 | 66 |
